Measured values as given in US4254285A, “1-Hydroxymethyl-1-1-oxo prostane derivatives of the E and F series” (American Cyanamid Company, priority 1979, dated 1981).
Where two headings read alike, the source gives them in different places.

What was measured:
[1] = test system: bronchospasms elicited by histamine; assay: Bronchodilator Activity (Konzett Assay), histamine; assay type: in vivo; details: guinea pig, intravenous, spasmogen histamine, three logarithmic cumulative doses
Protocol: (§1) The bronchodilator activity of some of the PGE compounds of this invention is determined in guinea pigs against bronchospasms elicited by intravenous injections of 5-hydroxytryptamine, histamine or acetylcholine by the Konzett procedure. [See J. Lulling, P. Lievens, F. El Sayed and J. Prignot, Arzneimittel-Forschung, 18, 995 (1968)].
(§2) In the Table B which follows, bronchodilator activity for representative compounds of this invention against one or more of the three spasmogenic agents is expressed as an ED50 determined from the results obtained with three logarithmic cumulative intravenous doses.

[2] = test system: continuous respiratory spasm induced by pilocarpine; assay: Bronchodilator Activity (Pilocarpine Assay); assay type: in vivo; details: dog, aerosol, 3.2 mg/ml; for inhibition at 3200 µg/mL: Canis lupus familiaris, inhaled or nasal
Protocol: The PGE compounds of this invention also have bronchodilator activity as determined in a test using dogs anesthetized, artificially ventilated and submitted to a continuous respiratory spasm induced by pilocarpine. Mongrel dogs of either sex weighing between 5 and 10 kg are used. They are premedicated with morphine HCl by subcutaneous injection at 1.5 mg/Kg. An intravenous perfusion of 5% (W/V) chloralose is started 1/2 hour after the morphine injection in such a way that 60 mg/Kg are administered within 15 minutes. After completion, a continuous perfusion of 10 mg/Kg hour is maintained throughout the experiment. The dogs are artificially ventilated by means of a Starling pump at a rate of 20 breaths/minute. The volume is adjusted according to the weight of the animal. [Kleinman and Radford, J. Appl. Physiol., 19, 360 (1964)]. All the measurements are made with the dogs positioned supine in a heated, V-shaped table. Curarization is obtained by succinylcholine chloride using a starting injection of 3 mg/Kg lasting 3 minutes, followed by a continuous perfusion of 0.1 mg/Kg/minute. The respiratory spasm is induced by a starting injection of 400 mcg/Kg of pilocarpine HCl lasting 5 minutes. An increase or decrease in the dose of pilocarpine HCl may occur as a function of the observed effect on airway's resistance. A 15 minute delay is observed before the start of a continuous perfusion of pilocarpine HCl at a dose of 4 mcg/Kg/minute to maintain a constant spasm during the test. A metallic cannula is inserted and fixed, after tracheotomy, into the upper part of the trachea. The two cephalic veins and the two femoral veins are catheterized to inject the various agents. The femoral artery is catheterized to measure the systemic blood pressure. An esophageal balloon (11 cm×2.5 cm) is inserted into the lower third of the oesophagus to measure the endothoracic pressure. The measurement of air flow is made with a […] pneumotachograph connected to the tracheal tube. The transpulmonary pressure is measured as follows: The tracheal cannula is equipped with a stainless steel axial tube (1.5 mm) which is closed at its distal end and projected 2.5 cm beyond the end of the cannula. Three holes with a diameter of one mm are pierced on this latter segment. This tube, which is used to measure the tracheal pressure, is connected to one of the two chambers of a Sanborn 267 B/C differential transducer. The other chamber is connected to the esophageal balloon by means of a polyethylene catheter of the same length and characteristics as the balloon's. The airway's resistance, expressed in cm of water/liter/second, is measured by subtracting from the electrical equivalent of the transpulmonary pressure, a voltage proportional to the flow so as to synchronize the pressure and volume signals on the oscilloscope [Mead and Whittenberger, J. Appl. Physiol, 5, 779 (1953)]. The test compounds are administered by an Aerosol® route. The micronebulizer of a Bird Mark 7 respirator is fitted on the metallic cannula just after the pneumotachograph. The "puff" of the test compound, in Aerosol® is driven by a 2 Kg/cm^2 pressure, allowed into the micronebulizer just during one inspiration cycle. The micronebulizer is fitted on the respiratory tube only during the "puff". It is weighed just before and just after administration to determine the amount of test compound administered.

[3] = test system: bronchospasms elicited by 5-hydroxytryptamine; assay: Bronchodilator Activity (Konzett Assay), 5-hydroxytryptamine; assay type: in vivo; details: guinea pig, intravenous, spasmogen 5-hydroxytryptamine, three logarithmic cumulative doses
Protocol: as §1, §2

[4] = test system: bronchospasms elicited by acetylcholine; assay: Bronchodilator Activity (Konzett Assay), acetylcholine; assay type: in vivo; details: guinea pig, intravenous, spasmogen acetylcholine, three logarithmic cumulative doses
Protocol: as §1, §2

[5] = assay type: in vivo, rat; details: indomethacin-only treatment, 10 mg/kg subcut.
Protocol: (§3) Male Wistar rats (Royal Hart, New Hampton, N.Y.), weighing 190-210 g are distributed among control and treatment groups (5 rats/group) and housed one rat per cage. During the 52 hour test period, the rats are permitted free access to food and drinking water for the first 33 hours but are fasted overnight prior to sacrifice. Indomethacin is suspended (4 mg/ml) in a 1.5% starch-phosphate buffer solution (SPBS). 1,9-dioxo-11α,16-dihydroxy-16-methyl-1-hydroxymethyl-13-transprostene is dissolved at 10 mg/ml in ethanol and then diluted in SPBS to 0.1 mg/ml or to a lower concentration as required. The indomethacin suspension is injected subcutaneously (10 mg/kg) and the prostaglandin suspension is given by gavage (0.5 mg/kg or less) b.i.d. on day 0 and 1. Rats receive only one dose of prostaglandin and indomethacin on day 2 and 6 hours later are killed with chloroform. The stomachs are dissected, opened along the greater curvature, and rinsed briefly in tap water. They are then spread, mucosal surface facing upward and pinned onto uniform size corks (2.5 inch diameter) individually numbered on the back. The identification number for each stomach is unknown to the investigator and the stomachs are randomly graded according to the following scheme:
(§4) ^a Treatment is B.I.D. on days 0 and 1, and once on day 2, six hours
(§5) prior to sacrifice for scoring.

[6] = test system: indomethacin-induced gastric ulcers; assay type: in vivo, rat; details: indomethacin-only treatment, 10 mg/kg subcut.
Protocol: as §3
1--Petechial hemorrhage, or pin-point ulcers
2--One or two small ulcers or hemorrhagic erosions
3--Many areas of hemorrhage erosion or ulcers, a few large
4--Massive areas of hemorrhagic erosion or many ulcers, mainly large
as §4, §5

[7] = test system: indomethacin-induced intestinal ulcers; assay type: in vivo, rat; details: indomethacin-only treatment, 10 mg/kg subcut.
Protocol: as §3
Intestines are also removed and examined for the presence of ulcers, which are graded according to the scheme outlined below.
1--Mucosa thin, petechial hemorrhage
2--"Blow-outs", when intestine inflated with air
3--Few ulcers. Gut more fragile than normal, tears along line of mesentery attachements when removed
4--Many large perforating lesions. Adhesions. Gut hemorrhagic and very fragile. Tears readily and cannot be removed intact. Graded in situ.
as §4, §5

[8] = test system: platelet aggregation induced by collagen; assay: Inhibition of platelet aggregation in vitro, collagen; assay type: cell-based; details: 0.025 mg/ml, human plasma
Source text: (§6) It is well known that platelet aggregation inhibitors may be useful as anti-thrombotic drugs. Inhibition of platelet aggregation can be conveniently measured in vitro by monitoring changes in optical density and/or light transmission in platelet rich plasma upon addition of suitable aggregating agents such as adenosine diphosphate, epinephrine, thrombin or collagen. Alternatively, platelet aggregation can be measured in vitro using platelet rich plasma obtained at various time intervals from animals given inhibitors by an oral or parenteral route.
(§7) […] is incubated with modified Tyrode's solution in a proportion of 40-50% human protein rich plasma. The test compounds are added at varying concentrations and after 5 minutes incubation, an aggregating agent such as adenosine diphosphate or collagen is added. The change in optical density (light transmission) is monitored by eye and inhibition is recorded as a (-) or lack of inhibition is recorded as a (+). Test compounds are considered active if they inhibit adenosine diphosphate or collagen induced aggregation at a concentration of 0.025 mg/ml or less within 5-10 minutes.

[9] = test system: platelet aggregation induced by adenosine diphosphate; assay: Inhibition of platelet aggregation in vitro, adenosine diphosphate; assay type: cell-based; details: 0.025 mg/ml, human plasma
Source text: as §6, §7

[10] = Cavia porcellus, read-out: ED50
[11] = 5 min, 5 min. after drug administration
[12] = 0.5 h, 30 min. after drug administration
[13] = 1 h, 60 min. after drug administration

| SMILES | ED50 [1, 10] [µg/kg] | inhibition at 3200 µg/mL [2, 11] [%] | inhibition at 3200 µg/mL [2, 12] [%] | inhibition at 3200 µg/mL [2, 13] [%] | ED50 [3, 10] [µg/kg] | ED50 [4, 10] [µg/kg] | further results |
| --- | --- | --- | --- | --- | --- | --- | --- |
| C=CC(O)(CC=CC1C(O)CC(=O)C1CCCCCCC(=O)CO)CCCC (stereo not drawn) [1,9-dioxo-11α,16-dihydroxy-1-hydroxymethyl-16-vinyl-13-trans-prostene] | 0.25 | 90 | 80 | 70 | 0.147 | 1.7 | – |
| C=CC(O)(CC=CC1C(O)CC(=O)C1CC=CCCCC(=O)CO)CCCC (stereo not drawn) | 0.254 | 80 | 80 | 66 | 0.402 | 2.66 | – |
| CCCCCC(O)CCC1CCC(=O)C1CCCCCCC(=O)CO [l-1,9-dioxo-15(S)-hydroxy-1-hydroxymethyl prostane] | 0.471 | 70 | 45 | 30 | 0.89 | – | – |
| COc1ccc2c(c1)c(CC(=O)O)c(C)n2C(=O)c1ccc(Cl)cc1 [Indomethacin, reference compound] | – | – | – | – | – | – | Hematocrit (Mean ± S.E.M.) [5]: 33.1 ± 2.1; Gastric Ulcer Score (Mean ± S.E.M.) [6]: 2.9 ± 0.2; Intestinal Ulcer Score (Mean ± S.E.M.) [7]: 3.7 ± 0.2 |
| CCCCC1(C(O)/C=C/C2C(O)CC(=O)C2C/C=C\CCCC=O)CCC1 (stereo not drawn) [1,9-dioxo-11α,15α-dihydroxy-16,16-trimethylene-5-cis,13-trans-prostadiene] | – | – | – | – | – | – | ED50 [1]: 0.781 µg/kg; ED50 [3]: 1.49 µg/kg; ED50 [4]: 0.995 µg/kg |
| CCCCCC(O)/C=C/C1CCC(=O)C1CCCCCCC(=O)CO (stereo not drawn) | – | – | – | – | – | – | inhibition of platelet aggregation [8]: shows inhibition of platelet aggregation; inhibition of platelet aggregation [9]: shows inhibition of platelet aggregation |
| C=CC(O)(CC=CC1C(O)CC(=O)C1CC=CCCCC(=O)COC(C)=O)CCCC (stereo not drawn) [1,9-Dioxo-11α,16-dihydroxy-16-vinyl-1-acetoxymethyl-5-cis-13-trans-prostadiene] | 0.78 | 92 | 75 | 55 | – | 0.795 | – |
| CCCCC(O)(CC)CC=CC1C(O)CC(=O)C1CC=CCCCC(=O)CO (stereo not drawn) [1,9-dioxo-11α,16-dihydroxy-16-ethyl-1-hydroxymethyl-5-cis-13-trans-prostadiene] | – | 70 | 50 | 35 | – | – | – |
| CCCCC1(C(O)C=CC2C(O)CC(=O)C2CC=CCCCC(=O)CO)CCC1 (stereo not drawn) [1,9-dioxo-11α,15-dihydroxy-1-hydroxymethyl-16,16-trimethylene-13-trans-5-cis-prostadiene] | – | 80 | 74 | 68 | – | – | – |
| CCCCC1(C(O)C=CC2C(O)CC(=O)C2CCCCCCC(=O)CO)CCC1 (stereo not drawn) [1,9-dioxo-11α,15-dihydroxy-1-hydroxymethyl-16,16-trimethylene-13-trans-prostene] | 0.734 | 90 | 75 | 60 | 1.4 | 1.3 | – |
| CCCCCC(O)C=CC1C(O)CC(=O)C1CCCCCCC(=O)CO (stereo not drawn) [1,9-dioxo-11α,15α-dihydroxy-1-hydroxymethyl-13-trans-prostene] | 0.547 | 80 | 40 | 15 | 0.936 | 3.9 | – |
| CCCCCC(C)(O)/C=C/C1CCC(=O)C1CCCCCCC(=O)CO (stereo not drawn) [1,9-dioxo-15α-hydroxy-15-methyl-1-hydroxymethyl-13-trans-prostene] | – | – | – | – | – | – | ED50 [1]: 0.373 µg/kg; % Inhibition of pilocarpine induced spasm ([2]; 5 min. after drug administration): 37%; % Inhibition of pilocarpine induced spasm ([2]; 30 min. after drug administration): 30%; % Inhibition of pilocarpine induced spasm ([2]; 60 min. after drug administration): 30%; ED50 [3]: 0.288 µg/kg; ED50 [4]: 0.293 µg/kg |
| CCCCCC(C)(O)CC=CC1C(O)CC(=O)C1CCCCCCC(=O)CO (stereo not drawn) [1,9-dioxo-11α,16-dihydroxy-16,20-dimethyl-1-hydroxymethyl-13-trans-prostene] | – | 55 | 70 | 55 | – | – | – |
| CCCCCC(C)(O)CC=CC1C(O)CC(=O)C1CC=CCCCC(=O)CO (stereo not drawn) [1,9-dioxo-11α,16-dihydroxy-16,20-dimethyl-1-hydroxymethyl-13-trans-5-cis-prostadiene] | 8.8 | – | – | – | 47 | 19 | – |
